Assay results published in ChEMBL document CHEMBL1201862, “PubChem BioAssay data set” (2004).
Calls of active or inactive are those of the source.

What was measured:
[1] = molecular target: T1, Carboxy-terminal domain RNA polymerase II polypeptide A small phosphatase 1 (Homo sapiens, UniProt Q9GZU7); assay: CTDSP1 inhibitors, concentration-response, biochemical, absorbance readout, ultra-high-throughput screen actives (AID 540297); assay type: functional
T1 sequence (Q9GZU7 whole entry): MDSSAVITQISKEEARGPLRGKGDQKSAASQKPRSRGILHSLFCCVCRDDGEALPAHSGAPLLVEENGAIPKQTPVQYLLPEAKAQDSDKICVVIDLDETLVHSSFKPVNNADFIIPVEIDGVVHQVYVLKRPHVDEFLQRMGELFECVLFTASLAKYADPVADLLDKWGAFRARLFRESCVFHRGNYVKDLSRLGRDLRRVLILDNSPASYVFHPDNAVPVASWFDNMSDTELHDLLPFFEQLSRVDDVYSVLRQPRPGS

[2] = molecular target: Heat shock protein HSP 90-alpha (Homo sapiens, UniProt P07900); assay type: functional, organism-based
Cytochrome P450 3A4 = Cytochrome P450 3A4 (Homo sapiens, UniProt P08684);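 also: CYP3A4 tested as one member of a cytochrome P450 panel screen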
Cytochrome P450 3A4, sequence (P08684 whole entry): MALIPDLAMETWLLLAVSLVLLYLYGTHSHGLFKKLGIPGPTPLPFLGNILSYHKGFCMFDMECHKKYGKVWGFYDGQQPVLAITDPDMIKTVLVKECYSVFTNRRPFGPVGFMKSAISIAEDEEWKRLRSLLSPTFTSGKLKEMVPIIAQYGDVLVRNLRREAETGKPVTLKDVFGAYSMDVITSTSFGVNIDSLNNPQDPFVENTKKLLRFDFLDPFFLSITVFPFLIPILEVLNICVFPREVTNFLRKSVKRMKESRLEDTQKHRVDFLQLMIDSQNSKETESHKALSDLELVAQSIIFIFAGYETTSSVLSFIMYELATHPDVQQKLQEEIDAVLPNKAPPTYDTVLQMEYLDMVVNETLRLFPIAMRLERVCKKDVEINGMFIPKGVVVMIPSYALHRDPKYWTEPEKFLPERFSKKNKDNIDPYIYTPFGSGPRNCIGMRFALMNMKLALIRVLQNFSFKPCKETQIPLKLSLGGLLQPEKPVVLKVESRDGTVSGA

[3] = molecular target: T2, Short transient receptor potential channel 4 (Mus musculus, UniProt Q9QUQ5); assay: calcium entry via TRPC4 opening agents – cell-based, HEK293 TRPC4/mu-opioid, Fluo-4 calcium, dose response (AID 434937); assay type: functional
T2 sequence (Q9QUQ5 whole entry): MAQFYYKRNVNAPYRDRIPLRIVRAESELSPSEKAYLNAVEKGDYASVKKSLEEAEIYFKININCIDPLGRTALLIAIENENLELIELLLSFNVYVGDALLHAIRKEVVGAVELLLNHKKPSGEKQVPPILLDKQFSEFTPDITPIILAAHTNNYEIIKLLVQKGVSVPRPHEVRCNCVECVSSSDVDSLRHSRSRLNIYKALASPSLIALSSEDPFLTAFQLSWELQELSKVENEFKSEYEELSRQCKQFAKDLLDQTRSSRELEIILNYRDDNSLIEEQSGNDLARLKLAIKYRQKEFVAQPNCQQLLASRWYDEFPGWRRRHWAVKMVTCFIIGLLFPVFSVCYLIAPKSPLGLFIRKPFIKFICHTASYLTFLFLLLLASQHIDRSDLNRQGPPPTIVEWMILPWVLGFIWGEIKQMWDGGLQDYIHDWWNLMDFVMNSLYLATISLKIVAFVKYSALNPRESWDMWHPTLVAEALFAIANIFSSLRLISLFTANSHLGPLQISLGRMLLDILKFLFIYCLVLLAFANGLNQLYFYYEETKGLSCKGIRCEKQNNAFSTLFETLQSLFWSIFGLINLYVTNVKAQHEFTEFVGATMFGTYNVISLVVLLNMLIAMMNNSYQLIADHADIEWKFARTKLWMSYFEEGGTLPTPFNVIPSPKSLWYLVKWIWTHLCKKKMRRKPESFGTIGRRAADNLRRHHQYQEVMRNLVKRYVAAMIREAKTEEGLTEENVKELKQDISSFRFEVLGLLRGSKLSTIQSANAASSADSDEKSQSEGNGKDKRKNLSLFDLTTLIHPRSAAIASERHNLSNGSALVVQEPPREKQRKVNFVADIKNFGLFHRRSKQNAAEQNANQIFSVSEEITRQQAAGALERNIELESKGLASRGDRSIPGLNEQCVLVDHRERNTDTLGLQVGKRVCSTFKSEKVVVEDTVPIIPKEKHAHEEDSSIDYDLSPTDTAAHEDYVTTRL

HEK293 = assay: EBV LMP1 TES2 canonical NF-kB signalling blockers – cell-based, HEK293, luciferase, cherry-pick, dose response (AID 588343); assay type: functional; details: Homo sapiens
Cytochrome P450 1A2 = molecular target: T3, Cytochrome P450 1A2 (Homo sapiens, UniProt P05177);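 also: PubChem cytochrome P450 panel assay, CYP1A2 panel member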
T3 sequence (P05177 whole entry): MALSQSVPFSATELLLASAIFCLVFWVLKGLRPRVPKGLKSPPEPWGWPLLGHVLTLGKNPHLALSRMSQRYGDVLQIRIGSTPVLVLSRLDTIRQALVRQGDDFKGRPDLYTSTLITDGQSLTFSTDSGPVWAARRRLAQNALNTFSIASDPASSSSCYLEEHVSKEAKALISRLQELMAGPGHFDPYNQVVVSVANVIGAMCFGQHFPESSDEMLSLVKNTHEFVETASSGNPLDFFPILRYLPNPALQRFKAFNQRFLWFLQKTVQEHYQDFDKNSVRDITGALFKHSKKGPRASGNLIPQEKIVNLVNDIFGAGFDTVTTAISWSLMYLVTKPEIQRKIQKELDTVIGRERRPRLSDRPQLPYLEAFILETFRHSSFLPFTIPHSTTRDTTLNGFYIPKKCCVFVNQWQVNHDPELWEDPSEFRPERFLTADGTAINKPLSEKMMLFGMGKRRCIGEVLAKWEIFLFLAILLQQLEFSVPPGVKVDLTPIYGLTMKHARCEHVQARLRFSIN

Nonstructural protein 1 = Nonstructural protein 1 (Influenza A virus, UniProt Q194T2); assay type: functional, Influenza A virus (A/California/07/2009(H1N1))
Nonstructural protein 1, sequence (Q194T2 whole entry): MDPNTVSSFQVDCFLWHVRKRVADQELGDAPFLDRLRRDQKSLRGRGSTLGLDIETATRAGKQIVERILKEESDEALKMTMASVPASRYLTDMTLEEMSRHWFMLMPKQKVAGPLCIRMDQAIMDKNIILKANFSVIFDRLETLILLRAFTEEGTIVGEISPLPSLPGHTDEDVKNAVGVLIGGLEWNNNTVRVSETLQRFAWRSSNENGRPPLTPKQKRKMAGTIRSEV

[4] = molecular target: T4, Microphthalmia-associated transcription factor (Homo sapiens, UniProt O75030); assay: reducers of TRPM1 reporter luminescence, concentration series – cell-based, SK-MEL-5, cherry-picked, set 3, MITF inhibitor project, dose response (AID 493073); assay type: functional;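 also: SK-MEL-5 melanoma cells with luciferase driven by the MITF target TRPM1 promoter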
T4 sequence (O75030 whole entry): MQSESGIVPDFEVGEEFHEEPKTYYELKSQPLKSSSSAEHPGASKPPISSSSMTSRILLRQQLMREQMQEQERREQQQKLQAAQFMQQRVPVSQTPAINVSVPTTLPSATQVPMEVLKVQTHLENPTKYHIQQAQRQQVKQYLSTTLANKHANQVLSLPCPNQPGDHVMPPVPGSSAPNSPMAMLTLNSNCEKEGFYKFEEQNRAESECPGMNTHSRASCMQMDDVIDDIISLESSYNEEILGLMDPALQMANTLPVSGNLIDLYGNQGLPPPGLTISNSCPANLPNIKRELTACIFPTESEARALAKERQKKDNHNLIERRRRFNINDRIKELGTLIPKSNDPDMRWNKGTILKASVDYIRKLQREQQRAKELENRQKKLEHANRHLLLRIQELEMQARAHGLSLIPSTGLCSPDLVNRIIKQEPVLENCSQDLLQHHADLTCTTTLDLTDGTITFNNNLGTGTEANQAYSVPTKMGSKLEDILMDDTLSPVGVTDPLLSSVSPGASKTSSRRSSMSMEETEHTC

[5] = NIH-3T3 fibroblast cytotoxicity, dose response, cytotoxicity control, cell-based, fluorescence, Alamar Blue, secondary assay (AID 2327); assay type: functional;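 also: NIH-3T3 mouse fibroblasts cultured with fluconazole at 8 µg/mL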
[6] = fluconazole-exposed Candida albicans growth modulators – fluorescence, retest, confirmation (AID 2467); assay type: functional, cell-based
[7] = molecular target: T5, Heat shock factor protein 1 (Mus musculus, UniProt P38532); assay: decrease of HSF1-responsive luciferase luminescence – cell-based, NIH3T3, dose retest, confirmation (AID 2382); assay type: functional;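 also: NIH3T3 fibroblasts with HSF1-driven luciferase reporter stressed by proteasome inhibitor MG132; luminescence from HSF1-driven luciferase expression after 8 hours of MG132 stress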
T5 sequence (P38532 whole entry): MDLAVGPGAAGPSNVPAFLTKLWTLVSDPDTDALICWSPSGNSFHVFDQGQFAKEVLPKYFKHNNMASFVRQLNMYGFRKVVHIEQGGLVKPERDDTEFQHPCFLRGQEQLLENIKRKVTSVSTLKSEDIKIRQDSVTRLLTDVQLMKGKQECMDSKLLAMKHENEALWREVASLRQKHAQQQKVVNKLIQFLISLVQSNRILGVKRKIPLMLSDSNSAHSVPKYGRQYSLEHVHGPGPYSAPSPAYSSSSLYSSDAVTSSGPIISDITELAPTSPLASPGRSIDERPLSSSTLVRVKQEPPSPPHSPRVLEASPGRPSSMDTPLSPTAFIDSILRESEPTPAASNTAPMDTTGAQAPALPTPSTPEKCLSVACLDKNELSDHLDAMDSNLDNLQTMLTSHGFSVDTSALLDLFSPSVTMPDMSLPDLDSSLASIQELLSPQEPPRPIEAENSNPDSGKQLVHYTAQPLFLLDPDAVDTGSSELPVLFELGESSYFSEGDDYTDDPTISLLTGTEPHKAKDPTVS

[8] = molecular target: Dual specificity tyrosine-phosphorylation-regulated kinase 1A (Rattus norvegicus, UniProt Q63470); assay type: biochemical, Homo sapiens
[9] = NIH3T3 cell viability loss – ATP luminescence, mouse fibroblasts, counter-screen, dose response (AID 2010); assay type: functional, cell-based;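 also: cells exposed to compound for about 90 hours before reading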
[10] = Trypanosoma cruzi growth suppression in host cells – NIH3T3 host cells, beta-gal luminescence, confirmation (AID 2044); assay type: functional, cell-based;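 also: intracellular parasites grown in NIH/3T3 mouse fibroblasts as host cells; luminescent beta-galactosidase reporter signal from transgenic T. cruzi replicating inside host cells; inhibitors lower the luminescence signal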
[11] = molecular target: T6, High affinity choline transporter 1 (Homo sapiens, UniProt Q9GZV3); assay: human choline transporter blockers, potency – cell-based, 5-point CRC, membrane potential dye, dose response (AID 504840); assay type: functional
T6 sequence (Q9GZV3 whole entry): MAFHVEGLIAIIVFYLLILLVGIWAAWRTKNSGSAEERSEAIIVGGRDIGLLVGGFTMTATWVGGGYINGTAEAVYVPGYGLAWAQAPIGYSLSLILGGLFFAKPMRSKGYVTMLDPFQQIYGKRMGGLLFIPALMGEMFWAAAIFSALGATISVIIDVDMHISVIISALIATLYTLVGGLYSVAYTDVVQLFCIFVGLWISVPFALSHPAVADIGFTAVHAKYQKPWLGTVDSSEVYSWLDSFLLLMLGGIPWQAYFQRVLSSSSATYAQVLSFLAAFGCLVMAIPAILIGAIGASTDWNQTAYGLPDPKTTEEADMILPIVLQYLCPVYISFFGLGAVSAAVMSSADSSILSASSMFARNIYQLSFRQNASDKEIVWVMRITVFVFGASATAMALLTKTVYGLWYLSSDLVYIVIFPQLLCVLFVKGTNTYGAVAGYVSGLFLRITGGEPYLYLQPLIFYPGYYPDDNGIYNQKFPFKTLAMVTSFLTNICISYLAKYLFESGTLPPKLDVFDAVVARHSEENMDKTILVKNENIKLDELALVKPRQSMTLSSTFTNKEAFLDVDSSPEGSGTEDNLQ

[12] = Luminescence Cell-Based Dose Response HTS to Identify Inhibitors of 5'UTR Stem-Loop Driven Prion Protein mRNA Translation in H4 Neuroglioblastoma Cells. [Related pubchem assays: 1827 (Project Summary), 1813 (Primary HTS)]; assay type: functional
cells = assay type: functional
[13] = Vero E6 cell cytotoxicity, dose response, cytotoxicity control for non-replicating M. tuberculosis project, secondary assay (AID 492998); assay type: functional, VeroE6; details: Vero C1008
[14] = luciferase reporter signal suppression in cells – H4 neuroglioma cells, luminescence, dose response (AID 1990); assay type: functional, cell-based
[15] = alpha-synuclein stem-loop luciferase translation blockers – H4 neuroglioma cells, luminescence, confirmation (AID 1988); assay type: functional, cell-based
[16] = A cytotoxicity screen of small molecule inhibitors of the PhoP region in Salmonella typhi identified in the primary screen. [Related pubchem assays: 1850, 1864, 1985 ]; assay type: functional
[17] = molecular target: T2, Short transient receptor potential channel 4; assay: block of DAMGO-driven TRPC4 calcium entry – cell-based, HEK293 TRPC4/mu-opioid, Fluo-4 calcium, dose response (AID 434942); assay type: functional;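 also: potency of inhibitors blocking the TRPC4 calcium response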

O=C(CSc1nccc(O)n1)N1N=C2/C(=C/c3ccco3)CCCC2C1c1ccco1 (stereo not drawn)
IC50 [1]: 13 µM (active)

O=C1C2C3C=CC(C3)C2C(=O)N1CN(Cc1ccccc1)CN1C(=O)C2C3C=CC(C3)C2C1=O (stereo not drawn)
AC50 [2]: 17.4 µM (active)

CSc1nc2cc(S(=O)(=O)N3CCCCC3)ccc2s1
AC50 (Cytochrome P450 3A4): inconclusive

COc1ccc(CCN(C)C(=O)C2CCCN(C3CCN(Cc4ccccc4)CC3)C2)cc1OC (stereo not drawn)
EC50 [3]: 1.19 µM (active)

CN(C)CC1Oc2ccccc2OC1(O)c1ccccc1 (stereo not drawn)
AC50 [2]: 2.52 µM (active)

COc1ccc(S(=O)(=O)NCCc2csc(-c3cccnc3)n2)cc1
AC50 (HEK293): 144 µM (active)

CC(=O)OCC(=O)[C@@]1(OC(C)=O)[C@H](C)C[C@H]2[C@@H]3C[C@H](F)C4=CC(=O)C=C[C@@]4(C)[C@]3(F)[C@H](O)C[C@@]21C
AC50 (Cytochrome P450 1A2): 12.6 µM (inconclusive)
AC50 (Cytochrome P450 3A4): inconclusive

CCOC(=O)C1=C(C)N=C2c3ccccc3C(=O)C2C1c1ccc(C)cc1 (stereo not drawn)
AC50 (Cytochrome P450 3A4): inconclusive
IC50 (Nonstructural protein 1): > 100 µM (active)

Nc1ncnc(Sc2ncccn2)c1[N+](=O)[O-]
AC50 [4]: 11.7 µM (active)
EC50 [5]: 7.47 µM (inconclusive)
EC50 [6]: 1 µM (active)

N#Cc1ccccc1S(=O)(=O)N1CCN(C(=O)C2COc3ccccc3O2)CC1 (stereo not drawn)
IC50 [1]: 3.54 µM (active)

O=C(c1cc(C(F)(F)F)cc(C(F)(F)F)c1)N1CCC2(CC1)CCN(c1ccncc1)CC2
AC50 (Cytochrome P450 1A2): 25.1 µM (inconclusive)
AC50 (Cytochrome P450 3A4): inconclusive

CC(C)(C)OC(=O)N1Cc2ccccc2C[C@H]1C(=O)NCC(=O)Nc1ccc2c(c1)OCCO2
EC50 [7]: 0.755 µM (active)
AC50 (HEK293): 1.4 µM (active)

O=C(O)/C=C/c1cccc(NC(=O)Nc2ccc([N+](=O)[O-])cc2)c1
AC50 [8]: 5.42 µM (active)

COc1cccc(CN2CCNC(=O)C2CC(=O)N(C)CCc2ccccn2)c1OC (stereo not drawn)
EC50 [3]: 6.68 µM (active)

Cc1ccc(C(=O)OCC(=O)c2ccc(CC(=O)N3CCOCC3)s2)c(C)c1
IC50 [1]: 4.73 µM (active)

CCc1ccccc1NC(=O)COc1ccc2oc(-c3ccc(OC)cc3)cc(=O)c2c1
IC50 [1]: 8.65 µM (active)

COc1ccc(CCN2C(=O)C=CC2=O)cc1OC
AC50 [2]: 3.1 µM (active)

CCCCCCCCC/C(=N\O)c1ccccn1
AC50 [2]: 4.09 µM (active)
EC50 [9]: > 30 µM (not active)
EC50 [10]: 1.97 µM (active)

CC(/C=N/NC(=O)c1cc(-c2ccncc2)nc2ccccc12)=C\c1ccco1
AC50 [4]: 2.4 µM (active)
IC50 [11]: 9.98 µM (active)

C(=N\Nc1[nH]cnc2ncnc1-2)/c1cccs1
AC50 [8]: 5.83 µM (active)

O=C(N/N=C1\CCCc2c1[nH]c1ccc(Cl)cc21)c1ccncc1
EC50 [12]: 25.8 µM (active)
IC50 (cells): 0.6 µM (active)
CC50 [13]: 9.43 µM (active)
EC50 [14]: 11.1 µM (active)
EC50 [15]: 10.3 µM (active)

CCc1nccc2c1[nH]c1ccccc12
EC50 [16]: > 50 µM (active)
EC50 [17]: 2.99 µM (active)
AC50 [8]: 5.67 µM (active)

CC(C)OC(=O)C(C)(C)Oc1ccc(C(=O)c2ccc(Cl)cc2)cc1 [FENOFIBRATE]
AC50 (Cytochrome P450 3A4): inconclusive
